Inhibition and IC50 data for 35 compounds are collected here from EP4095134A1, “POLYCYCLIC COMPOUNDS FOR THE TREATMENT OF NEUROLOGICAL INDICATIONS” (UCL Business Ltd, priority 2021, dated 2022).

T1 sequence (P47900 whole entry): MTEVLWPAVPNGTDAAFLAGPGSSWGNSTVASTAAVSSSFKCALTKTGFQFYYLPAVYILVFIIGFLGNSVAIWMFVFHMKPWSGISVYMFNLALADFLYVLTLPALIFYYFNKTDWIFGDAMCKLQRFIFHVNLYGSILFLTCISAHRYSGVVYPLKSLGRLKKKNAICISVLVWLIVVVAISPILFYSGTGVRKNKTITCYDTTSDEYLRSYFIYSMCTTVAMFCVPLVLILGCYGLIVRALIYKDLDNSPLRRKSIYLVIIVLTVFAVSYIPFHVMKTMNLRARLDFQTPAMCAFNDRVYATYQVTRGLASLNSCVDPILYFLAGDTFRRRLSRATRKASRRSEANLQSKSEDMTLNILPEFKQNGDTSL

One test has as its target T1, P2Y1 receptor (Homo sapiens, UniProt P47900).
T1 construct: expressed in transfected cells
In words: P2Y1 IP1 accumulation HTRF assay, antagonism of agonist MRS2365 in stably transfected cells. The conditions noted are these: at maximum tested concentration of 10000 nM; full dose-response curve not generated. It counts as cell-based. In a few lines:
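HTRF IP1 accumulation in stably P2Y1-overexpressing cells, plated the day before. Compounds pre-incubated 1 hour (10-point semi-log curve from 10µM, 0.1% DMSO), then 5nM MRS2365 added for 60 minutes, both at 37°C / 5% CO2. IP1 interpolated from standard curve; IC50 from N ≥ 4 runs.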
Background: TR-FRET usually uses a lanthanide donor and a delayed reading to cut background.
A word on the inhibition: it is how much of the control response was suppressed. In turn, `COc1ccc2nc(Nc3cccnc3Oc3ccc(F)cc3C3(C(F)(F)F)CCO3)[nH]c2n1` (racemic) [S96] displayed an inhibition at 10 µM of 56%.

The test is the same for the next values; noted with them: racemic; 5nM MRS2365; values rounded to nearest whole number; N >= 4.
The IC50 is the midpoint of a concentration-inhibition curve. The low end stands for inhibition by little substance, the high end for a need for much substance. Regarding `Cc1cccc(Oc2ncccc2NC(=O)Nc2ccc(OC(F)(F)F)cc2)c1C1COC1` (racemic) [S88], the IC50 stood at 1160 nM. As for `CN1CCC1(c1ccccc1Oc1ncccc1NC(=O)Nc1ccc(OC(F)(F)F)cc1)C(F)(F)F` (racemic) [S89], the IC50 turned out to be 71 nM. Regarding `O=C(Nc1ccc(OC(F)(F)F)cc1)Nc1cccnc1Oc1cccc(C2(C(F)(F)F)CCO2)c1` (racemic) [S90, 1-(4-(trifluoromethoxy)phenyl)-3-(2-(3-(2-(trifluoromethyl)oxetan-2-yl)phenoxy)pyridin-3-yl)urea], the IC50 turned out to be 322 nM. `Cc1c(Oc2ncccc2NC(=O)Nc2ccc(OC(F)(F)F)cc2)cccc1C1COC1` (racemic) [S91] registered an IC50 of 1370 nM. As to `O=C(Nc1ccc(OC(F)(F)F)cc1)Nc1cccnc1Oc1cccc(C2COC2)c1` (racemic) [S92], the half-maximal inhibitory concentration (IC50) came out at 2790 nM. Turning to `Cc1c(Oc2ncccc2NC(=O)Nc2ccc(OC(F)(F)F)cc2)cccc1N1CCC1` (racemic) [S94], the half-inhibitory concentration (IC50) turned out to be 889 nM. As for `CC1(c2ccccc2Oc2ncccc2NC(=O)Nc2ccc(OC(F)(F)F)cc2)CCC1` (racemic) [S95], the 50% inhibitory concentration (IC50) amounted to 36 nM.

Regarding `Fc1ccc(Oc2ncccc2Nc2nc3ccc(C(F)(F)F)cc3[nH]2)c(C2(C(F)(F)F)CCO2)c1` (racemic) [S97], the 50% inhibitory concentration (IC50) stood at 1010 nM. As for `O=C(Nc1ccc(OC(F)(F)F)cc1)Nc1cccnc1Oc1ccccc1C1(C(F)(F)F)CCN1CC1CC1` (racemic) [S116], the IC50 was found to be 45 nM. The same measure, in the same setting: the same measure for `CC(C)(C)CN1CCC1(c1ccccc1Oc1ncccc1NC(=O)Nc1ccc(OC(F)(F)F)cc1)C(F)(F)F` (racemic) [S117]: 39 nM; for `O=C(Nc1ccc(OC(F)(F)F)cc1)Nc1cccnc1Oc1ccccc1C1(C(F)F)CCN1CCF` (racemic) [S118]: 121 nM. On the same count and under the same terms, the result for `COc1ccc2nc(Nc3cccnc3Oc3ccc(F)cc3C3(C(F)(F)F)CCO3)[nH]c2n1` (racemic) [S119] reads 721 nM. Regarding `Cc1cc2nc(Nc3cccnc3Oc3ccc(F)cc3C3(C(F)(F)F)CCO3)[nH]c2cc1C` (racemic) [S120], the IC50 came out at 1240 nM.

The compound `Fc1ccc(Oc2ncccc2Nc2nc3ccc(OC(F)(F)F)cc3[nH]2)c(C2(C(F)(F)F)CCO2)c1` (racemic) [S121] displayed an IC50 of 1440 nM. As to `Cc1c(Oc2ncccc2NC(=O)Nc2ccc(OC(F)(F)F)cc2)cccc1N1CC(C)(C)C1` [S93], the half-maximal inhibitory concentration (IC50) came out at 683 nM.

Still in this test, the particulars now being: single enantiomer; 5nM MRS2365; values rounded to nearest whole number.
For the compound `Cc1ccc(NC(=O)Nc2ccc(OC(F)(F)F)cc2F)c(Oc2ccccc2[C@]2(C(F)(F)F)CCO2)n1` (racemic) [S104], the 50% inhibitory concentration (IC50) was found to be 68 nM. `CN1CC[C@]1(c1ccccc1Oc1ncccc1NC(=O)Nc1ccc(OC(F)(F)F)cc1)C(F)(F)F` (racemic) [S105]: the IC50 stood at 77 nM.

As to `Cc1ccc(NC(=O)Nc2ccc(Cl)cc2F)c(Oc2ccccc2[C@]2(C(F)(F)F)CCO2)n1` (racemic) [S109], the IC50 was determined as 126 nM. `CN1CC[C@@]1(c1ccccc1Oc1ncccc1NC(=O)Nc1ccc(OC(F)(F)F)cc1F)C(F)(F)F` (single isomer, unassigned) [S98] returned a concentration for half-maximal inhibition (IC50) of 26 nM. `Cc1ccc(NC(=O)Nc2ccc(C(C)(C)C(F)(F)F)cc2)c(Oc2ccccc2[C@@]2(C(F)(F)F)CCO2)n1` (single isomer, unassigned) [S99] displayed a concentration for half-maximal inhibition (IC50) of 29 nM. Take `O=C(Nc1cc(F)c(Cl)cc1F)Nc1cccnc1Oc1ccccc1[C@@]1(C(F)(F)F)CCO1` (single isomer, unassigned) [S100]: the half-inhibitory concentration (IC50) turned out to be 44 nM. `CN1CC[C@]1(c1ccccc1Oc1ncccc1NC(=O)Nc1ccc(OC(F)(F)F)cc1F)C(F)(F)F` (single isomer, unassigned) [S102] gave an IC50 of 52 nM.

In turn, `Cc1ccc(NC(=O)Nc2ccc(C(C)C)cc2F)c(Oc2ccccc2[C@@]2(C(F)(F)F)CCO2)n1` (single isomer, unassigned) [S122] showed an IC50 of 18 nM. Compound `CC(C)(c1ccc(NC(=O)Nc2cccnc2Oc2ccccc2[C@@]2(C(F)(F)F)CCO2)cc1)C(F)(F)F` [S101] showed an IC50 of 48 nM. `O=C(Nc1ccc(OC(F)(F)F)cc1F)Nc1cccnc1Oc1ccccc1[C@]1(C(F)(F)F)CCO1` [S107] gave an IC50 of 113 nM. `O=C(Nc1cccnc1Oc1ccccc1[C@@]1(C(F)(F)F)CCO1)Nc1ccc(Cl)c(F)c1F` [S108] displayed an IC50 of 125 nM. Still for that read-out and setting: the result for `O=C(Nc1ccc(OC(F)(F)F)cc1)Nc1cccnc1Oc1ccccc1[C@@]1(C(F)(F)F)CCO1` [S110] reads 68 nM; that for `O=C(Nc1ccc(OC(F)(F)F)cc1)Nc1cccnc1Oc1ccccc1[C@]1(C(F)(F)F)CCO1` [S111], 119 nM; that for `O=C(Nc1ccc(OC(F)(F)F)cc1F)Nc1cccnc1Oc1ccccc1[C@@]1(C(F)(F)F)CCO1` [S112], 38 nM. Regarding `Cc1ccc(NC(=O)Nc2ccc(OC(F)(F)F)cc2F)c(Oc2ccccc2[C@@]2(C(F)(F)F)CCO2)n1` [S113], the IC50 was 34 nM. As for `Cc1ccc(NC(=O)Nc2ccc(Cl)cc2F)c(Oc2ccccc2[C@@]2(C(F)(F)F)CCO2)n1` [S114], the IC50 was determined as 41 nM.

Turning to `CN1CC[C@@]1(c1ccccc1Oc1ncccc1NC(=O)Nc1ccc(OC(F)(F)F)cc1)C(F)(F)F` [S115], the IC50 amounted to 39 nM. Same read-out and setting: the result for `Cc1ccc(NC(=O)Nc2ccc(C(C)C)cc2F)c(Oc2ccccc2[C@]2(C(F)(F)F)CCO2)n1` [S123] reads 33 nM; that for `CC(C)c1ccc(NC(=O)Nc2cccnc2Oc2ccccc2[C@@]2(C(F)(F)F)CCO2)c(F)c1` [S124], 20 nM.
